From US10822348B2, “Inhibitors of Bruton's tyrosine kinase and methods of their use” (JANSSEN PHARMACEUTICA NV, priority 2015, dated 2020)

Biological target: unphosphorylated-BTK kinase domain (UP-BTK), GST-tagged human BTK (389-659aa) (Homo sapiens (Human), UniProt Q06187)
Experiment: BTK kinase Lanthascreen binding assay
Conditions: 60 minutes incubation
Protocol: BTK Kinase Lanthascreen Binding Assay:
A BTK kinase lanthascreen binding assay monitors compound binding to unphosphorylated-BTK kinase domain (UP-BTK), by competing with a fluorescent labeled tracer. […] Data were analyzed using Xlfit™ version 5.3 from ID Business Solutions (Guildford), Microsoft Excel add-in. pIC50 refers to the negative log of the IC50 in molar.

[1] = negative log of the IC50 in molar, 50 nM Tracer 236
[2] = unphosphorylated-BTK kinase domain, pIC50 = negative log of the IC50 in molar

unphosphorylated-BTK kinase domain (UP-BTK), GST-tagged human BTK (389-659aa), sequence (Q06187 389-659): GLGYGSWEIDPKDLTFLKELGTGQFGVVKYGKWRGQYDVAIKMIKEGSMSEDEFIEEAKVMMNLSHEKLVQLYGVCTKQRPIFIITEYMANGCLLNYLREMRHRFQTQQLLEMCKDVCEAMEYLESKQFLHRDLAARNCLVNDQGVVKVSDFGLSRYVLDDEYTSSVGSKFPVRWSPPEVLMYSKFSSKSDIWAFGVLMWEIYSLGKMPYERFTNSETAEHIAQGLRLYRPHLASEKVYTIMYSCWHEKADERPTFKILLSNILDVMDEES

BTK_I_binding pIC50 [1] | BTK_I_binding pIC50 [2] | SMILES
7.8 | – | Cc1cc(Oc2ccccc2)ccc1N1C(=O)Nc2c(C(=O)N[C@@H]3CCCOC3)sc3nccc1c23 (single isomer, unassigned) [Example 96, (R)-5-(*S)-(2-Methyl-4-phenoxyphenyl)-4-oxo-N-(tetrahydro-2H-pyran-3-yl)-4,5-dihydro-3H-1-thia-3,5,8-triazaacenaphthylene-2-carboxamide]
6.9 | – | Cc1cc(Oc2ccccc2)ccc1N1C(=O)Nc2c(C(=O)N[C@@H]3CCCN(C(=O)/C(C#N)=C/C(C)(C)N4CCOCC4)C3)sc3nccc1c23 (single isomer, unassigned) [Example 112, (R,E)-N-(1-(2-Cyano-4-methyl-4-morpholinopent-2-enoyl)piperidin-3-yl)-5-(*R)-(2-methyl-4-phenoxyphenyl)-4-oxo-4,5-dihydro-3H-1-thia-3,5,8-triazaacenaphthylene-2-carboxamide]
7.4 | – | Cc1cc(Oc2ccccc2)ccc1N1C(=O)Nc2c(C(=O)N[C@@H]3CCN(C)C3)sc3nccc1c23 (single isomer, unassigned) [Example 147, (R)-5-(*S)-(2-Methyl-4-phenoxyphenyl)-N-(1-methylpyrrolidin-3-yl)-4-oxo-4,5-dihydro-3H-1-thia-3,5,8-triazaacenaphthylene-2-carboxamide]
6.4 | – | C=CC(=O)N1CC[C@@H](NC(=O)c2sc3nccc4c3c2NC(=O)N4c2ccc(Oc3ccccc3)cc2C)C1 (single isomer, unassigned) [Example 169, (R)—N-(1-Acryloylpyrrolidin-3-yl)-5-(*R)-(2-methyl-4-phenoxyphenyl)-4-oxo-4,5-dihydro-3H-1-thia-3,5,8-triazaacenaphthylene-2-carboxamide]
7.4 | – | N#C/C(=C\C1CC1)C(=O)N1CCC[C@@H](NC(=O)c2sc3nccc4c3c2NC(=O)N4c2c(Cl)ccc3c2OCO3)C1 (single isomer, unassigned) [Example 239]
6.3 | – | Cc1cc(Oc2ccccc2)ccc1N1C(=O)Nc2c(C(=O)N[C@H]3CCCOC3)sc3nccc1c23 (single isomer, unassigned) [Example 267, (S)-5-(*R)-(2-Methyl-4-phenoxyphenyl)-4-oxo-N-(tetrahydro-2H-pyran-3-yl)-4,5-dihydro-3H-1-thia-3,5,8-triazaacenaphthylene-2-carboxamide]
– | 6.2 | Cc1cc(Oc2ccccc2)ccc1N1C(=O)Nc2c(C(=O)N[C@@H]3CCCN(C(=O)CN(C)C)C3)sc3nccc1c23 (single isomer, unassigned) [Example 287, (R)—N-(1-(2-(Dimethylamino)acetyl)piperidin-3-yl)-5-(*R)-(2-methyl-4-phenoxyphenyl)-4-oxo-4,5-dihydro-3H-1-thia-3,5,8-triazaacenaphthylene-2-carboxamide]
– | 6.2 | C=CC(=O)N1CCC[C@H](NC(=O)c2sc3nccc4c3c2NC(=O)N4c2ccc(Oc3ccccc3)cc2C)C1 (single isomer, unassigned) [Example 289, (S)—N-(1-Acryloylpiperidin-3-yl)-5-(*R)-(2-methyl-4-phenoxyphenyl)-4-oxo-4,5-dihydro-3H-1-thia-3,5,8-triazaacenaphthylene-2-carboxamide]
– | 6.1 | CNC/C=C/C(=O)N1CCC[C@@H](NC(=O)c2sc3nccc4c3c2NC(=O)N4c2ccc(Oc3ccccc3)cc2C)C1 (single isomer, unassigned) [Example 292, (R,E)-5-(*R)-(2-Methyl-4-phenoxyphenyl)-N-(1-(4-(methylamino)but-2-enoyl)piperidin-3-yl)-4-oxo-4,5-dihydro-3H-1-thia-3,5,8-triazaacenaphthylene-2-carboxamide]
– | 6.0 | Cc1cc(Oc2ccccc2)ccc1N1C(=O)Nc2c(C(=O)N[C@@H]3CCCOC3)sc3nccc1c23 (single isomer, unassigned) [Example 307, (R)-5-(*R)-(2-Methyl-4-phenoxyphenyl)-4-oxo-N-(tetrahydro-2H-pyran-3-yl)-4,5-dihydro-3H-1-thia-3,5,8-triazaacenaphthylene-2-carboxamide]
– | 7.1 | C=CC(=O)N1CCC[C@@H](NC(=O)c2sc3nccc4c3c2NC(=O)N4c2c(Cl)ccc3c2OCO3)C1 (single isomer, unassigned) [Example 321, (R)—N-(1-Acryloylpiperidin-3-yl)-5-(*R)-(5-chlorobenzo[d][1,3]dioxol-4-yl)-4-oxo-4,5-dihydro-3H-1-thia-3,5,8-triazaacenaphthylene-2-carboxamide]
– | 5.7 | Cc1cc(Oc2ccccc2)ccc1N1C(=O)Nc2c(C(=O)N[C@@H]3CCCN(C#N)C3)sc3nccc1c23 (single isomer, unassigned) [Example 329, (R)—N-(1-Cyanopiperidin-3-yl)-5-(*R)-(2-methyl-4-phenoxyphenyl)-4-oxo-4,5-dihydro-3H-1-thia-3,5,8-triazaacenaphthylene-2-carboxamide]

Further lines, the compound ahead of its results:

SMILES | BTK_I_binding pIC50 [1] | BTK_I_binding pIC50 [2]
CNC/C=C/C(=O)N1CCC[C@@H](NC(=O)c2sc3nccc4c3c2NC(=O)N4c2ccc(Oc3ccccc3)cc2C)C1 (single isomer, unassigned) [Example 23, (R,E)-5-(*S)-(2-Methyl-4-phenoxyphenyl)-N-(1-(4-(methylamino)but-2-enoyl)piperidin-3-yl)-4-oxo-4,5-dihydro-3H-1-thia-3,5,8-triazaacenaphthylene-2-carboxamide] | 7.5 | –
CNC/C=C/C(=O)N1CCC[C@@H](NC(=O)c2sc3nccc4c3c2NC(=O)N4c2ccc(Oc3ccccc3)cc2C)C1 (single isomer, unassigned) [Example 38, (R,E)-5-(*S)-(2-Methyl-4-phenoxyphenyl)-N-(1-(4-(methylamino)but-2-enoyl)piperidin-3-yl)-4-oxo-4,5-dihydro-3H-1-thia-3,5,8-triazaacenaphthylene-2-carboxamide] | 7.3 | –
C=CC(=O)N1CCC[C@H](NC(=O)c2sc3nccc4c3c2NC(=O)N4c2ccc(Oc3ccccc3)cc2C)C1 (single isomer, unassigned) [Example 44, (S)—N-(1-Acryloylpiperidin-3-yl)-5-(*S)-(2-methyl-4-phenoxyphenyl)-4-oxo-4,5-dihydro-3H-1-thia-3,5,8-triazaacenaphthylene-2-carboxamide] | 7.4 | –
Cc1cc(Oc2ccccc2)ccc1N1C(=O)Nc2c(C(=O)N[C@@H]3CCCN(C(=O)CN(C)C)C3)sc3nccc1c23 (single isomer, unassigned) [Example 56, (R)—N-(1-(2-(Dimethylamino)acetyl)piperidin-3-yl)-5-(*S)-(2-methyl-4-phenoxyphenyl)-4-oxo-4,5-dihydro-3H-1-thia-3,5,8-triazaacenaphthylene-2-carboxamide] | 7.4 | –
C=CC(=O)N1CCC[C@H](NC(=O)c2sc3nccc4c3c2NC(=O)N4c2ccc(Oc3ccccc3)cc2C)C1 (single isomer, unassigned) [Example 82, (S)—N-(1-acryloylpiperidin-3-yl)-5-(*S)-(2-methyl-4-phenoxyphenyl)-4-oxo-4,5-dihydro-3H-1-thia-3,5,8-triazaacenaphthylene-2-carboxamide] | 7.2 | –
C=CC(=O)N1CCC[C@@H](NC(=O)c2sc3nccc4c3c2NC(=O)N4c2ccc(Oc3ccccc3)cc2C)C1 (single isomer, unassigned) [Example 87, (R)—N-(1-Acryloylpiperidin-3-yl)-5-(*R)-(2-methyl-4-phenoxyphenyl)-4-oxo-4,5-dihydro-3H-1-thia-3,5,8-triazaacenaphthylene-2-carboxamide] | 6.9 | –
Cc1cc(Oc2ccccc2)ccc1N1C(=O)Nc2c(C(=O)N[C@H]3CCCOC3)sc3nccc1c23 (single isomer, unassigned) [Example 88, (S)-5-(*S)-(2-Methyl-4-phenoxyphenyl)-4-oxo-N-(tetrahydro-2H-pyran-3-yl)-4,5-dihydro-3H-1-thia-3,5,8-triazaacenaphthylene-2-carboxamide] | 7.6 | –
Cc1cc(Oc2ccccc2)ccc1N1C(=O)Nc2c(C(=O)N[C@@H]3CCCN(C)C3)sc3nccc1c23 (single isomer, unassigned) [Example 127, (R)-5-(*S)-(2-Methyl-4-phenoxyphenyl)-N-(1-methylpiperidin-3-yl)-4-oxo-4,5-dihydro-3H-1-thia-3,5,8-triazaacenaphthylene-2-carboxamide] | 7.3 | –
Cc1cc(Oc2ccccc2)ccc1N1C(=O)Nc2c(C(=O)N[C@@H]3CCCN(C)C3)sc3nccc1c23 (single isomer, unassigned) [Example 180, (R)-5-(*R)-(2-Methyl-4-phenoxyphenyl)-N-(1-methylpiperidin-3-yl)-4-oxo-4,5-dihydro-3H-1-thia-3,5,8-triazaacenaphthylene-2-carboxamide] | 6.0 | –
Cc1cc(Oc2ccccc2)ccc1N1C(=O)Nc2c(C(=O)N[C@H]3CCCN(C)C3)sc3nccc1c23 (single isomer, unassigned) [Example 249, (S)-5-(*S)-(2-Methyl-4-phenoxyphenyl)-N-(1-methylpiperidin-3-yl)-4-oxo-4,5-dihydro-3H-1-thia-3,5,8-triazaacenaphthylene-2-carboxamide] | 6.6 | –
Cc1cc(Oc2ccccc2)ccc1N1C(=O)Nc2c(C(=O)N[C@@H]3CCCNC3)sc3nccc1c23 (single isomer, unassigned) [Example 300, (R)-5-(*R)-(2-methyl-4-phenoxyphenyl)-4-oxo-N-(piperidin-3-yl)-4,5-dihydro-3H-1-thia-3,5,8-triazaacenaphthylene-2-carboxamide] | – | 6.0
Cc1cc(Oc2ccccc2)ccc1N1C(=O)Nc2c(C(=O)N[C@H]3CCCN(C)C3)sc3nccc1c23 (single isomer, unassigned) [Example 339, (S)-5-(*R)-(2-Methyl-4-phenoxyphenyl)-N-(1-methylpiperidin-3-yl)-4-oxo-4,5-dihydro-3H-1-thia-3,5,8-triazaacenaphthylene-2-carboxamide] | – | 5.4
